Experimental data taken from patent US5140014A (Abbott Laboratories, priority 1989, dated 1992).
In brackets after ≈: the same amount, converted by molar mass. Where two headings read alike, the source gives them in different places.

Columns and labels:
Assay in all cases: in vitro antibacterial activity, agar dilution method (MIC)
Format in all cases: cell-based
Acinetobacter Sp = settings: strain CMX 669, BHI agar, 20-24 hours
Description: (§1) The test medium was Brain Heart Infusion (BHI) agar. The antibacterial agent was dissolved at a concentration of 2,000 ug/mL. Test plates were then prepared, usually 12 two-fold dilutions. After adding the sample to the plates, 10 mL of cooled BHI agar medium was added to each plate. The organisms were grown overnight in BHI broth (Difco) in a 35°-37° C. incubator.
(§2) On the day of testing, the bacterial suspensions were diluted 1:100 in sterile distilled water, except for a few slow-growing organisms (usually Micrococcus and Streptococcus) which were diluted 1:10. The plate was then inoculated with approximately 10^4 organisms. This was incubated in a 35°-37° C. incubator for 20-24 hours. Thereafter, the plates were read to determine the minimum inhibitory concentration (MIC) defined as the lowest concentration of drug yielding no growth on the plate, a slight haze, or sparsely isolated colonies on the inoculum spot as compared to the growth control.

Enterobacter Aerogenes = settings: BHI agar, 20-24 hours
Description: as §1, §2

Enterococcus Faecium = settings: BHI agar, 20-24 hours
Description: as §1, §2

Haemophilus Influenzae = settings: BHI agar, 20-24 hours
Description: as §1, §2

Klebsiella Pneumoniae = settings: BHI agar, 20-24 hours
Description: as §1, §2

Micrococcus Luteus = settings: BHI agar, 20-24 hours
Description: as §1, §2

Providencia Stuartii = settings: strain CMX 640, BHI agar, 20-24 hours
Description: as §1, §2

Pseudomonas Aeruginosa = settings: BHI agar, 20-24 hours
Description: as §1, §2

Staphylococcus Aureus = settings: BHI agar, 20-24 hours
Description: as §1, §2

[1] = test system: Staphylococcus Epidermidis; settings: strain 3519, BHI agar, 20-24 hours
Description: as §1, §2

Streptococcus Agalactiae = test system: Streptococcus Agalactiae
Description: as §1, §2

Streptococcus Bovis = settings: strain A5169, BHI agar, 20-24 hours
Description: as §1, §2

Streptococcus Pyogenes = test system: Streptococcus Pyogenes
Description: as §1, §2

Escherichia Coli = settings: BHI agar, 20-24 hours
Description: as §1, with “Compounds 1 to 8 were evaluated for antibacterial activity by the agar dilution method to determine the degree of in vitro susceptibility of aerobic microorganisms to antimicrobial agents. The test” for “The test”
as §2

Pseudomonas Cepacia = settings: strain 296I, BHI agar, 20-24 hours
Description: as §1, with “Compounds 1 to 8 were evaluated for antibacterial activity by the agar dilution method to determine the degree of in vitro susceptibility of aerobic microorganisms to antimicrobial agents. The test” for “The test”
as §2

[2] = Haemophilus influenzae, strain 588A, read-out: MIC

CCC1OC(=O)CC(O)C(C)C(OC2OC(C)C(O)C(N(C)C)C2O)C(CC=O)CC(C)C(N(C)C)CCC(C)=CC1COC(C)=O (stereo not drawn) [Example 7, [9S]-23-O-Acetyl-9-deoxo-10,11-dihydro-9-N,N-dimethylamino-5-O-mycaminosyl-tylonide]
MIC (Acinetobacter Sp): 50 µg/mL (≈ 74.5 µM)
MIC (Enterobacter Aerogenes; strain ATCC 13048): > 100 µg/mL
MIC (Enterococcus Faecium; strain ATCC 8043): 1.56 µg/mL (≈ 2.33 µM)
MIC (Haemophilus Influenzae; [2]): 4 µg/mL (≈ 5.96 µM)
MIC (Haemophilus Influenzae; strain 503B): 2 µg/mL (≈ 2.98 µM)
MIC (Haemophilus Influenzae; strain 519A): 1 µg/mL (≈ 1.49 µM)
MIC (Haemophilus Influenzae; strain 566A): 4 µg/mL (≈ 5.96 µM)
MIC (Haemophilus Influenzae; strain 747C): 4 µg/mL (≈ 5.96 µM)
MIC (Haemophilus Influenzae; strain 751): 16 µg/mL (≈ 23.8 µM)
MIC (Haemophilus Influenzae; strain 1177): 0.5 µg/mL (≈ 0.745 µM)
MIC (Haemophilus Influenzae; strain 1435): 4 µg/mL (≈ 5.96 µM)
MIC (Haemophilus Influenzae; strain ATCC 9795): 4 µg/mL (≈ 5.96 µM)
MIC (Haemophilus Influenzae; strain ATCC 10211): 4 µg/mL (≈ 5.96 µM)
MIC (Haemophilus Influenzae; strain ATCC 19418): 4 µg/mL (≈ 5.96 µM)
MIC (Haemophilus Influenzae; strain ATCC 43095): 2 µg/mL (≈ 2.98 µM)
MIC (Haemophilus Influenzae; strain DILL AMP R): 4 µg/mL (≈ 5.96 µM)
MIC (Haemophilus Influenzae; strain SOL AMP R): 4 µg/mL (≈ 5.96 µM)
MIC (Haemophilus Influenzae; strain SPK AMP R): 4 µg/mL (≈ 5.96 µM)
MIC (Klebsiella Pneumoniae; strain ATCC 8045): 100 µg/mL (≈ 149 µM)
MIC (Micrococcus Luteus; strain ATCC 4698): 1.56 µg/mL (≈ 2.33 µM)
MIC (Micrococcus Luteus; strain ATCC 9341): 0.78 µg/mL (≈ 1.16 µM)
MIC (Providencia Stuartii): > 100 µg/mL
MIC (Pseudomonas Aeruginosa; strain A5007): > 100 µg/mL
MIC (Pseudomonas Aeruginosa; strain BMH10): 100 µg/mL (≈ 149 µM)
MIC (Pseudomonas Aeruginosa; strain K799/61): 3.1 µg/mL (≈ 4.62 µM)
MIC (Pseudomonas Aeruginosa; strain K799/WT): > 100 µg/mL
MIC (Staphylococcus Aureus; strain 45): 3.1 µg/mL (≈ 4.62 µM)
MIC (Staphylococcus Aureus; strain 45 RAR2): 6.2 µg/mL (≈ 9.24 µM)
MIC (Staphylococcus Aureus; strain 642A): 6.2 µg/mL (≈ 9.24 µM)
MIC (Staphylococcus Aureus; strain A5177): 6.2 µg/mL (≈ 9.24 µM)
MIC (Staphylococcus Aureus; strain ATCC 6538P): 6.2 µg/mL (≈ 9.24 µM)
MIC (Staphylococcus Aureus; strain CMX 553): 6.2 µg/mL (≈ 9.24 µM)
MIC (Staphylococcus Aureus; strain NCTC 10649): 6.2 µg/mL (≈ 9.24 µM)
MIC [1]: 1.56 µg/mL (≈ 2.33 µM)
MIC (Streptococcus Agalactiae; strain CMX 508, BHI agar, 20-24 hours): 0.39 µg/mL (≈ 0.581 µM)
MIC (Streptococcus Bovis): 0.1 µg/mL (≈ 0.149 µM)
MIC (Streptococcus Pyogenes; strain 930 CONST, BHI agar, 20-24 hours): > 100 µg/mL
MIC (Streptococcus Pyogenes; strain 2548 INDUC, BHI agar, 20-24 hours): 1.56 µg/mL (≈ 2.33 µM)
MIC (Streptococcus Pyogenes; strain EES61, BHI agar, 20-24 hours): 0.78 µg/mL (≈ 1.16 µM)
MIC (Escherichia Coli; strain DC-2): 50 µg/mL (≈ 74.5 µM)
MIC (Escherichia Coli; strain H560): 12.5 µg/mL (≈ 18.6 µM)
MIC (Escherichia Coli; strain JUHL): 100 µg/mL (≈ 149 µM)
MIC (Escherichia Coli; strain KNK 437): 50 µg/mL (≈ 74.5 µM)
MIC (Escherichia Coli; strain SS): 0.78 µg/mL (≈ 1.16 µM)
MIC (Pseudomonas Cepacia): > 100 µg/mL

CCC1OC(=O)CC(O)C(C)C(OC2OC(C)CC(N(C)C)C2O)C(CC=O)CC(C)C(N(C)C)C=CC(C)=CC1COC(C)=O (stereo not drawn) [Example 5, [9R]-23-O-Acetyl-9-deoxo-4'-deoxy-9-N,N-dimethylamino-5-O-mycaminosyl-tylonide]
MIC (Acinetobacter Sp; Acinetobacter, read-out: MIC): 3.1 µg/mL (≈ 4.75 µM)
MIC (Enterobacter Aerogenes; Klebsiella aerogenes, ATCC13048, strain ATCC 13048, read-out: MIC): 50 µg/mL (≈ 76.6 µM)
MIC (Enterococcus Faecium; Enterococcus faecium, ATCC8043, strain ATCC 8043, read-out: MIC): 0.1 µg/mL (≈ 0.153 µM)
MIC (Haemophilus Influenzae; Haemophilus influenzae, ATCC9795, strain ATCC 9795, read-out: MIC): 2 µg/mL (≈ 3.06 µM)
MIC (Haemophilus Influenzae; Haemophilus influenzae, ATCC10211, strain ATCC 10211, read-out: MIC): 2 µg/mL (≈ 3.06 µM)
MIC (Haemophilus Influenzae; Haemophilus influenzae, ATCC19418, strain ATCC 19418, read-out: MIC): 2 µg/mL (≈ 3.06 µM)
MIC (Haemophilus Influenzae; Haemophilus influenzae, ATCC43095, strain ATCC 43095, read-out: MIC): 2 µg/mL (≈ 3.06 µM)
MIC (Haemophilus Influenzae; Haemophilus influenzae, strain 503B, read-out: MIC): 2 µg/mL (≈ 3.06 µM)
MIC (Haemophilus Influenzae; Haemophilus influenzae, strain 504, read-out: MIC): 1 µg/mL (≈ 1.53 µM)
MIC (Haemophilus Influenzae; Haemophilus influenzae, strain 519A, read-out: MIC): 1 µg/mL (≈ 1.53 µM)
MIC (Haemophilus Influenzae; Haemophilus influenzae, strain 566A, read-out: MIC): 4 µg/mL (≈ 6.13 µM)
MIC (Haemophilus Influenzae; [2]): 2 µg/mL (≈ 3.06 µM)
MIC (Haemophilus Influenzae; Haemophilus influenzae, strain 632A, read-out: MIC): 2 µg/mL (≈ 3.06 µM)
MIC (Haemophilus Influenzae; Haemophilus influenzae, strain 667A, read-out: MIC): 2 µg/mL (≈ 3.06 µM)
MIC (Haemophilus Influenzae; Haemophilus influenzae, strain 747C, read-out: MIC): 2 µg/mL (≈ 3.06 µM)
MIC (Haemophilus Influenzae; Haemophilus influenzae, strain 751, read-out: MIC): 4 µg/mL (≈ 6.13 µM)
MIC (Haemophilus Influenzae; Haemophilus influenzae, strain 1177, read-out: MIC): 0.12 µg/mL (≈ 0.184 µM)
MIC (Haemophilus Influenzae; Haemophilus influenzae, strain 1435, read-out: MIC): 1 µg/mL (≈ 1.53 µM)
MIC (Haemophilus Influenzae; Haemophilus influenzae, strain DILL AMP R, read-out: MIC): 2 µg/mL (≈ 3.06 µM)
MIC (Haemophilus Influenzae; Haemophilus influenzae, strain SOL AMP R, read-out: MIC): 2 µg/mL (≈ 3.06 µM)
MIC (Haemophilus Influenzae; Haemophilus influenzae, strain SPK AMP R, read-out: MIC): 2 µg/mL (≈ 3.06 µM)
MIC (Klebsiella Pneumoniae; Klebsiella pneumoniae, ATCC8045, strain ATCC 8045, read-out: MIC): 25 µg/mL (≈ 38.3 µM)
MIC (Micrococcus Luteus; Micrococcus luteus, ATCC4698, strain ATCC 4698, read-out: MIC): 0.1 µg/mL (≈ 0.153 µM)
MIC (Micrococcus Luteus; Micrococcus luteus, ATCC9341, strain ATCC 9341, read-out: MIC): 0.1 µg/mL (≈ 0.153 µM)
MIC (Providencia Stuartii; Providencia stuartii, read-out: MIC): > 100 µg/mL
MIC (Pseudomonas Aeruginosa; Pseudomonas aeruginosa, strain A5007, read-out: MIC): > 100 µg/mL
MIC (Pseudomonas Aeruginosa; Pseudomonas aeruginosa, strain BMH10, read-out: MIC): 100 µg/mL (≈ 153 µM)
MIC (Pseudomonas Aeruginosa; Pseudomonas aeruginosa, strain K799/61, read-out: MIC): 1.56 µg/mL (≈ 2.39 µM)
MIC (Pseudomonas Aeruginosa; Pseudomonas aeruginosa, strain K799/WT, read-out: MIC): > 100 µg/mL
MIC (Staphylococcus Aureus; Staphylococcus aureus, ATCC6538P, strain ATCC 6538P, read-out: MIC): 0.39 µg/mL (≈ 0.597 µM)
MIC (Staphylococcus Aureus; Staphylococcus aureus, NCTC10649, strain NCTC 10649, read-out: MIC): 0.39 µg/mL (≈ 0.597 µM)
MIC (Staphylococcus Aureus; Staphylococcus aureus, strain 45, read-out: MIC): 0.39 µg/mL (≈ 0.597 µM)
MIC (Staphylococcus Aureus; Staphylococcus aureus, strain 45 RAR2, read-out: MIC): 0.78 µg/mL (≈ 1.19 µM)
MIC (Staphylococcus Aureus; Staphylococcus aureus, strain 642A, read-out: MIC): 0.78 µg/mL (≈ 1.19 µM)
MIC (Staphylococcus Aureus; Staphylococcus aureus, strain A5177, read-out: MIC): 0.39 µg/mL (≈ 0.597 µM)
MIC (Staphylococcus Aureus; Staphylococcus aureus, strain CMX 553, read-out: MIC): 0.78 µg/mL (≈ 1.19 µM)
MIC ([1]; Staphylococcus epidermidis, read-out: MIC): 0.39 µg/mL (≈ 0.597 µM)
MIC (Streptococcus Agalactiae; Streptococcus agalactiae): 0.05 µg/mL (≈ 0.0766 µM)
MIC (Streptococcus Bovis; Streptococcus equinus): 0.05 µg/mL (≈ 0.0766 µM)
MIC (Streptococcus Pyogenes; Streptococcus pyogenes): 0.05 µg/mL (≈ 0.0766 µM)
MIC (Streptococcus Pyogenes; Streptococcus pyogenes, strain 930 CONST, BHI agar, 20-24 hours, read-out: MIC): 50 µg/mL (≈ 76.6 µM)
MIC (Streptococcus Pyogenes; Streptococcus pyogenes, strain 2548 INDUC, BHI agar, 20-24 hours, read-out: MIC): 0.2 µg/mL (≈ 0.306 µM)
MIC (Escherichia Coli; Escherichia coli, strain DC-2, read-out: MIC): 6.2 µg/mL (≈ 9.5 µM)
MIC (Escherichia Coli; Escherichia coli, strain H560, read-out: MIC): 3.1 µg/mL (≈ 4.75 µM)
MIC (Escherichia Coli; Escherichia coli, strain JUHL, read-out: MIC): 12.5 µg/mL (≈ 19.1 µM)
MIC (Escherichia Coli; Escherichia coli, strain KNK 437, read-out: MIC): 12.5 µg/mL (≈ 19.1 µM)
MIC (Escherichia Coli; Escherichia coli, strain SS, read-out: MIC): 0.2 µg/mL (≈ 0.306 µM)
MIC (Pseudomonas Cepacia; Burkholderia cepacia, read-out: MIC): > 100 µg/mL
